We go through two compounds from patent publication US20240327364A1, “THERAPEUTIC TARGETING OF GPR68 TO INDUCE FERROPTOSIS” (University Of Maryland, Baltimore, priority 2023, published 2024).

In one test the target is T1, GPR103 (Homo sapiens, UniProt Q96P65).
T1 construct: host or cells: Chem-1 cells expressing Gα15
As to the kind of experiment: GPCR Profiler. It is filed as cell-based.

For a further test, the target named is T2, CDK3 (Homo sapiens, UniProt Q00526).
T2 construct: purchased DiscoveRx (KinomeScan service)
As to the kind of experiment: KinomeScan. Format: binding. The note with it: read-out: % Control.

In a further test the target is T3, STK16 (Homo sapiens, UniProt O75716).
T3 construct: purchased DiscoveRx (Fremont, CA)
As to the kind of experiment: KinomeScan. Format: binding. Particulars: read-out: % Control.

The target in the next test is T4, DDR1 (Homo sapiens, UniProt Q08345).
T4 construct: purchased DiscoveRx (Fremont, CA), KinomeScan service
T4 sequence (Q08345 19-913): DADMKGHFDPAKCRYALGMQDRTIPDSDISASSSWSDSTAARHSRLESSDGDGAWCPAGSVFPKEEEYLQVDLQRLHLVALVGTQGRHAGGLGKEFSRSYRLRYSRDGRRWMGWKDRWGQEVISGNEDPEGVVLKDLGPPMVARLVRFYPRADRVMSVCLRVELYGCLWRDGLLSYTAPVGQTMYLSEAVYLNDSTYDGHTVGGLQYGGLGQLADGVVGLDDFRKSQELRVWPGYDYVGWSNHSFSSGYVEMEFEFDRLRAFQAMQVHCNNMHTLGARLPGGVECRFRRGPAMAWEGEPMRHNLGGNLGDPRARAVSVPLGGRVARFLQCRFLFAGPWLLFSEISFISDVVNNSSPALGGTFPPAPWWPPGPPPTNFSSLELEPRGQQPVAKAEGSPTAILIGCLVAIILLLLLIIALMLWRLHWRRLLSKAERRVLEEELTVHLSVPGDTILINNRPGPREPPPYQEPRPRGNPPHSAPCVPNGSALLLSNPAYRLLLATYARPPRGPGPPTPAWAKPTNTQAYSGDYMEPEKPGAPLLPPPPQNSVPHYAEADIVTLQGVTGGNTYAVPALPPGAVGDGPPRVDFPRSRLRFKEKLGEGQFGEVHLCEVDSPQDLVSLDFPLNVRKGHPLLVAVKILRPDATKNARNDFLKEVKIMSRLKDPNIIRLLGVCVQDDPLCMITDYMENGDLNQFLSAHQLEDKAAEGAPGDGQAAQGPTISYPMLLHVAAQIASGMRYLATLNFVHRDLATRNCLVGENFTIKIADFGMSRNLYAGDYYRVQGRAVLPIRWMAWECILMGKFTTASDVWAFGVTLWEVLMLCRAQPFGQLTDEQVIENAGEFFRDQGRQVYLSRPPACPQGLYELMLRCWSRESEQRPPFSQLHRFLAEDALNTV
Briefly: KinomeScan. Format: binding. The note with it: read-out: % Control.

Another test concerns the target T5, PTH1 (Homo sapiens, UniProt Q03431).
T5 construct: host or cells: Chem-1 cells with Gα15
As to the kind of experiment: GPCR Profiler. Format: cell-based.

Another test deals with T6, EPHA7 (Homo sapiens, UniProt Q15375).
T6 construct: purchased DiscoveRx (Fremont, CA)
Briefly: KinomeScan. The note with it: read-out: % Control. It is filed as binding.

In a further test the target is T7, DCAMKL3 (Homo sapiens, UniProt Q9C098).
T7 construct: purchased DiscoveRx (Fremont, CA), KinomeScan service
As to the kind of experiment: KinomeScan. It is filed as binding. The note with it: read-out: % Control.

Another test deals with T8, ROCK2 (Homo sapiens, UniProt O75116).
T8 construct: purchased DiscoveRx (Fremont, CA)
As to the kind of experiment: KinomeScan. Particulars: read-out: % Control. Format: binding.

The target of a further test is T9, YANK1 (Homo sapiens, UniProt Q8WU08).
T9 construct: purchased DiscoveRx
T9 sequence (Q8WU08 whole entry): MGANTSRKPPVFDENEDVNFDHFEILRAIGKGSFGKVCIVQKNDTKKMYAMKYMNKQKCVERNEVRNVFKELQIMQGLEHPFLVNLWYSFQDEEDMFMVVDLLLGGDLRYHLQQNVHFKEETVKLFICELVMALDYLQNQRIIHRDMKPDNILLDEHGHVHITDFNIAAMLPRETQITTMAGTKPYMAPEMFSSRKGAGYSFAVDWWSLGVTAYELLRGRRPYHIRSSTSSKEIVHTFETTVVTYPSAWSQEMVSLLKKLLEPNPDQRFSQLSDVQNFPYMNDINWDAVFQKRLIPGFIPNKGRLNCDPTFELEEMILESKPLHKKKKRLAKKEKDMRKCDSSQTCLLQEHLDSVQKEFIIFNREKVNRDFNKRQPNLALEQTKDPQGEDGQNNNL
Briefly: KinomeScan. It is filed as binding. Particulars: read-out: % Control.

A further test concerns the target T10, PRKCD (Homo sapiens, UniProt Q05655).
T10 construct: purchased DiscoveRx (Fremont, CA)
As to the kind of experiment: KinomeScan. It is filed as binding. The note with it: read-out: % Control.

The target in another test is T11, MC2 (Homo sapiens, UniProt Q01718).
T11 construct: host or cells: Chem-1 cells with promiscuous Gα15
T11 sequence (Q01718 whole entry): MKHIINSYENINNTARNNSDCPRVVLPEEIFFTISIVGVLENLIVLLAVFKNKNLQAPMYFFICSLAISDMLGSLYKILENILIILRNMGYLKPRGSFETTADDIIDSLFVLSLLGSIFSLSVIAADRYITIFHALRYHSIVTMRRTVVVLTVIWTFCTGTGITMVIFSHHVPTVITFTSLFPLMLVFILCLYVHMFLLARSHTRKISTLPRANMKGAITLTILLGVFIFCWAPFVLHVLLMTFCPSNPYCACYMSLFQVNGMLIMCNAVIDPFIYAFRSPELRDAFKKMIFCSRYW
T11 sequence (Q8TCY5 whole entry partner): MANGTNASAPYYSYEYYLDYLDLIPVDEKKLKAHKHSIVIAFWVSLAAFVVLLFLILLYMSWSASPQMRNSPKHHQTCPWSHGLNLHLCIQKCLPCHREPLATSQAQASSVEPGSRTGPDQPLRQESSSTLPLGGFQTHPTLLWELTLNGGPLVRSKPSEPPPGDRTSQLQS
As to the kind of experiment: GPCR Profiler. Format: cell-based.

Another test concerns the target T12, EPHA3 (Homo sapiens, UniProt P29320).
T12 construct: purchased DiscoveRx (Fremont, CA)
As to the kind of experiment: KinomeScan. Format: binding. Particulars: read-out: % Control.

For test [1], the target named is T13, ABL1(Q252H)-phosphorylated (Homo sapiens, UniProt P00519, Q252H).
T13 construct: purchased DiscoveRx
As to the kind of experiment: KinomeScan. Particulars: read-out: % Control. Format: binding.

The next test addresses T14, GPR109A (Homo sapiens, UniProt Q8TDS4).
T14 construct: host or cells: Chem-1 cells expressing Gα15
Briefly: GPCR Profiler. Format: cell-based.

Another test addresses T15, PCTK3 (Homo sapiens, UniProt Q07002).
T15 construct: purchased DiscoveRx
As to the kind of experiment: KinomeScan. It is filed as binding. The note with it: read-out: % Control.

Another test has as its target T16, V1B (Homo sapiens, UniProt P47901).
T16 construct: host or cells: Chem-1 cells with Gα15
As to the kind of experiment: GPCR Profiler. It is filed as cell-based.

A further test deals with T17, D2 (Homo sapiens, UniProt P14416).
T17 construct: host or cells: Chem-1 cells with Gα15
T17 sequence (P14416 whole entry): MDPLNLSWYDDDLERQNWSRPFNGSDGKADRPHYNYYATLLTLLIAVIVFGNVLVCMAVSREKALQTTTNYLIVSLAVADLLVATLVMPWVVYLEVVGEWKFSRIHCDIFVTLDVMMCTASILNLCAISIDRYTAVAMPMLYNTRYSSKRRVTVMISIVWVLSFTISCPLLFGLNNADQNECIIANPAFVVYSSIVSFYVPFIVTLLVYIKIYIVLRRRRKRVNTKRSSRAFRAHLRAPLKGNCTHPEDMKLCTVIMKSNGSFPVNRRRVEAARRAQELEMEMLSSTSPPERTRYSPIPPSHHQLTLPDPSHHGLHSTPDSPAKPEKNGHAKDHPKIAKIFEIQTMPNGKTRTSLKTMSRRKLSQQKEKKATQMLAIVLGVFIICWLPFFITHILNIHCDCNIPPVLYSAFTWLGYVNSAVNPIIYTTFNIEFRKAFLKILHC
Briefly: GPCR Profiler. It is filed as cell-based.

In another test the target is T18, ETA (Homo sapiens, UniProt P25101).
T18 construct: host or cells: Chem-1 cells expressing Gα15
T18 sequence (P25101 21-427): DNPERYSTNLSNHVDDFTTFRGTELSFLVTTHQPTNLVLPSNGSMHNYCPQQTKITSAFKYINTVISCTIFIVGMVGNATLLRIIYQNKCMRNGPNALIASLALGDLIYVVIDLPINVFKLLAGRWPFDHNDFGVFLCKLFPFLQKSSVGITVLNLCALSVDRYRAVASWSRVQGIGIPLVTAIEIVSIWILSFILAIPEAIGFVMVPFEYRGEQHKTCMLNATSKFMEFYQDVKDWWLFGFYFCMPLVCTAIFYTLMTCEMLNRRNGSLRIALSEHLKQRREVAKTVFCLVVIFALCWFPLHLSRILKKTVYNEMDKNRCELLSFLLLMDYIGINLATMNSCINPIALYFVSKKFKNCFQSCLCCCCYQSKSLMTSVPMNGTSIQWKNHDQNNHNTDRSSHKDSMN
As to the kind of experiment: GPCR Profiler. Format: cell-based.

In another test the target is T19, PRKD2 (Homo sapiens, UniProt Q9BZL6).
T19 construct: purchased DiscoveRx (Fremont, CA)
Briefly: KinomeScan. It is filed as binding. The note with it: read-out: % Control.

For another test, the target named is T20, ACVR2B (Homo sapiens, UniProt Q13705).
T20 construct: purchased DiscoveRx
Briefly: KinomeScan. Format: binding. The note with it: read-out: % Control.

The test system of another test is U87. Briefly: GSH-Glo Glutathione Assay. It is filed as cell-based, human. Particulars: 2 μM OGM2 for 24 hours. How it is done: GSH-Glo™ Glutathione Assay (Promega™) was performed according to manufacturer protocol. Briefly, U87 cells were plated at 10,000 cells per well in a 96-well plate. The following day cells were treated with DMSO control vehicle or 2 μM OGM2 for 24 hours. Medium was removed from wells and 100 μl GSH-Glo™ Reagent was added to each well and incubated on a plate shaker for 30 minutes. One hundred microliters Luciferin Detection Reagent was added to each well and mixed briefly. After 15 minutes incubation, luminescence was detected on Promega™ GloMax luminometer.

SMILES strings stand for the structures.

T1 sequence (Q96P65 whole entry): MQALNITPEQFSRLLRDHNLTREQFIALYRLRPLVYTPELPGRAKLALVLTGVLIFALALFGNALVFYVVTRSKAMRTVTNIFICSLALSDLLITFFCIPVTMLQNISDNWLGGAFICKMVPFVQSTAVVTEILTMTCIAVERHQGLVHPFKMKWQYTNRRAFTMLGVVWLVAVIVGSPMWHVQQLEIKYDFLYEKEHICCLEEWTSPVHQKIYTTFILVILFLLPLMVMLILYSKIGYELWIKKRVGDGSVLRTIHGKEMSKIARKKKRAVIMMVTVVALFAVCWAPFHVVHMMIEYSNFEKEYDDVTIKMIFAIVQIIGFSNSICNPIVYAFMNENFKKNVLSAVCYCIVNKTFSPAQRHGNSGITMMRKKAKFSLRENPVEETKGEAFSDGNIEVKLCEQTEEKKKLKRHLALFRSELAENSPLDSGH
T5 sequence (Q03431 27-593): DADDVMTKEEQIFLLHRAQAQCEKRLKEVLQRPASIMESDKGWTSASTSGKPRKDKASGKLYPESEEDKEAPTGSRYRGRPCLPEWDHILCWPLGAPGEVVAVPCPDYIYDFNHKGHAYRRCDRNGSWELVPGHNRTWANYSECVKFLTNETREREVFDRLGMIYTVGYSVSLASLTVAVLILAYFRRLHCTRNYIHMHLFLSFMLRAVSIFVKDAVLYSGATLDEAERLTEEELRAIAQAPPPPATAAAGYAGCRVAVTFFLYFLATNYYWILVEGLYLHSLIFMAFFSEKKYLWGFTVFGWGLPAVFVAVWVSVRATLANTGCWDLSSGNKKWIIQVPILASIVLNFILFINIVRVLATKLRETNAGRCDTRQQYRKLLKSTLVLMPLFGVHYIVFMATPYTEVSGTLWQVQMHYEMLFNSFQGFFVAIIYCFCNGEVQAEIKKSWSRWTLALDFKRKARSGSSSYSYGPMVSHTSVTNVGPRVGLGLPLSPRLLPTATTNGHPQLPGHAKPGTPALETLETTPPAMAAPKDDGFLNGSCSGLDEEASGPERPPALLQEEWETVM
T16 sequence (P47901 whole entry): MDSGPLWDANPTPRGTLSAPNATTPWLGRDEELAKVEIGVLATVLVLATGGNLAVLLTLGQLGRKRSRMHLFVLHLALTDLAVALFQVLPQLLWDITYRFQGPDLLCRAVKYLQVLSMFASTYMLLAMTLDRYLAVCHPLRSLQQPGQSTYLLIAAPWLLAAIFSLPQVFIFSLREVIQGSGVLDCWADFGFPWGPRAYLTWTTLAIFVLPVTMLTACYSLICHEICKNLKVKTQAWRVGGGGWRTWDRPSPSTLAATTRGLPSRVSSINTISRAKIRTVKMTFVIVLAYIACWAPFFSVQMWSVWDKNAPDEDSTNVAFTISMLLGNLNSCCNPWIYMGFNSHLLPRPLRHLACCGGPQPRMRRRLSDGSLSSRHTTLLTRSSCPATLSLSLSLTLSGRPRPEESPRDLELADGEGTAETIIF
T14 sequence (Q8TDS4 whole entry): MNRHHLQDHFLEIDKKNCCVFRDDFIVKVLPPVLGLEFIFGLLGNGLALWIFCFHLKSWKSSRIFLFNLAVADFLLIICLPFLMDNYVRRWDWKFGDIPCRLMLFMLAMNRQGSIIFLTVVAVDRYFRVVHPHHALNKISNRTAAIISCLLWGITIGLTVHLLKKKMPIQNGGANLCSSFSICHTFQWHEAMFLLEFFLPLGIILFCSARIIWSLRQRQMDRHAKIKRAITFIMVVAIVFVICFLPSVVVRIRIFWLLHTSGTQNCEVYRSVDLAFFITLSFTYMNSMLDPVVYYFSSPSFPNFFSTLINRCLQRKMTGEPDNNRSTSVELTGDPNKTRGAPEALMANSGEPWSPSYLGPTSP
T15 sequence (Q07002 whole entry): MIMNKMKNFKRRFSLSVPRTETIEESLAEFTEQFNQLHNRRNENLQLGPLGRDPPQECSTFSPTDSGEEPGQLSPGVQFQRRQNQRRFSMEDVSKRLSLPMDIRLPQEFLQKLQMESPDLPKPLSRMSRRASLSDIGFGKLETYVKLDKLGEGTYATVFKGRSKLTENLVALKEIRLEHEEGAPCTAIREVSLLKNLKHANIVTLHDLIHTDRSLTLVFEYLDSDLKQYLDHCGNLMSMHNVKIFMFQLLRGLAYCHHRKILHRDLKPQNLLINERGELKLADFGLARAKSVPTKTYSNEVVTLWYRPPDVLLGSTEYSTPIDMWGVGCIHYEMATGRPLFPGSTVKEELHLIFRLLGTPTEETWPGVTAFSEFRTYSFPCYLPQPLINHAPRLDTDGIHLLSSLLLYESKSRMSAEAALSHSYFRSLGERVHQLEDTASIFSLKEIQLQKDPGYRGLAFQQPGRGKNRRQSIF

On to `CCc1ccc2c(c1)C1(NN=C(c3cccc4ccccc34)S1)C(=O)N2` (stereo not shown) [OGM1, 5-ethyl-5′-naphthalen-1-ylspiro[1H-indole-3,2′-3H-1,3,4-thiadiazole]-2-one], for which the Antagonism was −7 at GPR103 (10 uM); 2.2 on PTH1 (10 uM); 3.9 on MC2 (10 uM); 20.3 at GPR109A (10 uM); −2.8 at V1B (10 uM); 11.4 on D2 (10 uM). The compound also gave an Antagonism at ETA (10 uM) of 4.7. For the same compound, the Agonism at GPR103 (12.5 uM) is listed as −0.1; on PTH1 (12.5 uM), 0.7; at MC2 (12.5 uM), 0.1; on GPR109A (12.5 uM) it was −0.2; on V1B (12.5 uM), −0.1; on D2 (12.5 uM), −0.5. At ETA (12.5 uM), this compound returned an Agonism of 0.1. Further, the remaining binding at 10 µM at CDK3 amounted to 81%; at STK16, 88%; on DDR1, 100%; on EPHA7 it was 100%; on DCAMKL3, 100%; at ROCK2 it was 73%. The remaining binding at 10 µM at YANK1 was 100%; at PRKCD it was 100%; at EPHA3 it was 78%; in test [1] it was 94%; at PCTK3 it was 99%; on PRKD2, 87%. Also, the remaining binding at 10 µM at ACVR2B was determined as 100%.

Consider `CCc1ccc2c(c1)C1(NN=C(c3ccccc3)S1)C(=O)N2` (stereo not shown) [OGM2], for which, in the test on U87, the glutathione levels result is given as “dramatically reduced glutathione levels”.
